Measurements from the NIST ThermoML archive (doi:10.1021/je060271a).
“And” between values parts separate entries of the source, which are not always exact repeats. Equal entries are not always repeated.

Details: 303.15 K, Liquid, Vibrating tube method

CCCCCC(=O)OCC(COC(=O)CCCCC)(COC(=O)CCCCC)COC(=O)CCCCC [pentaerythritol tetrahexanoate]
Details	mass density
17124 kPa	999 kg/m3
17144 kPa	998.9 kg/m3
17164 kPa	998.9 kg/m3
17186 kPa	998.9 kg/m3
17201 kPa	998.9 kg/m3
17216 kPa	998.9 kg/m3
17229 kPa	999.1 kg/m3
17243 kPa	999 kg/m3
17245 kPa	999 kg/m3
17247 kPa	999.1 kg/m3
17248 kPa	999.1 kg/m3
17250 kPa	999.1 kg/m3
17251 kPa	999 kg/m3
17252 kPa	999 kg/m3
17253 kPa	999 kg/m3
17254 kPa	999.1 kg/m3
17256 kPa	999 kg/m3
17265 kPa	999 kg/m3
17267 kPa	999.1 kg/m3
17272 kPa	999 kg/m3
17282 kPa	999 kg/m3
17286 kPa	999 kg/m3
17289 kPa	999 kg/m3
17290 kPa	998.9 kg/m3 and 999 kg/m3
17296 kPa	999.1 kg/m3
17310 kPa	999.2 kg/m3
17330 kPa	999.1 kg/m3
17334 kPa	999.1 kg/m3
17348 kPa	999.1 kg/m3
17353 kPa	999 kg/m3
17354 kPa	999.2 kg/m3
17377 kPa	999.2 kg/m3
17400 kPa	999.1 kg/m3
17428 kPa	999.2 kg/m3
17452 kPa	999.1 kg/m3
17475 kPa	999.3 kg/m3
17503 kPa	999.1 kg/m3
17526 kPa	999.1 kg/m3
17550 kPa	999.3 kg/m3
17577 kPa	999.3 kg/m3
17917 kPa	999.3 kg/m3
17939 kPa	999.5 kg/m3
17961 kPa	999.4 kg/m3
17988 kPa	999.5 kg/m3
18010 kPa	999.4 kg/m3
18037 kPa	999.5 kg/m3
18060 kPa	999.6 kg/m3
18083 kPa	999.5 kg/m3
18105 kPa	999.5 kg/m3
18132 kPa	999.4 kg/m3
18155 kPa	999.6 kg/m3
18178 kPa	999.7 kg/m3
18205 kPa	999.6 kg/m3
18228 kPa	999.6 kg/m3
18256 kPa	999.6 kg/m3
18279 kPa	999.6 kg/m3
18302 kPa	999.6 kg/m3
18325 kPa	999.7 kg/m3
18353 kPa	999.6 kg/m3
18377 kPa	999.8 kg/m3
18400 kPa	999.7 kg/m3
18428 kPa	999.7 kg/m3
18452 kPa	999.6 kg/m3
18476 kPa	999.8 kg/m3
18504 kPa	999.8 kg/m3
18528 kPa	999.8 kg/m3
18551 kPa	999.7 kg/m3
18580 kPa	999.9 kg/m3
18604 kPa	1000 kg/m3
18628 kPa	1000 kg/m3
18657 kPa	999.8 kg/m3
18917 kPa	1000 kg/m3
18943 kPa	1000 kg/m3
18968 kPa	999.9 kg/m3
18998 kPa	1000 kg/m3
19024 kPa	1000 kg/m3
19049 kPa	1000.2 kg/m3
19074 kPa	1000 kg/m3
19104 kPa	1000.1 kg/m3
19128 kPa	1000 kg/m3
19154 kPa	1000.1 kg/m3
19177 kPa	1000.1 kg/m3
19199 kPa	1000.2 kg/m3
19226 kPa	1000.2 kg/m3
19249 kPa	1000.3 kg/m3
19273 kPa	1000.2 kg/m3
19296 kPa	1000.3 kg/m3
19323 kPa	1000.1 kg/m3
19346 kPa	1000.2 kg/m3
19374 kPa	1000.3 kg/m3
19397 kPa	1000.3 kg/m3
19420 kPa	1000.3 kg/m3
19443 kPa	1000.3 kg/m3
19471 kPa	1000.3 kg/m3
19495 kPa	1000.2 kg/m3
19518 kPa	1000.3 kg/m3
19546 kPa	1000.4 kg/m3
19570 kPa	1000.4 kg/m3
19595 kPa	1000.3 kg/m3
19618 kPa	1000.4 kg/m3
19642 kPa	1000.4 kg/m3
19670 kPa	1000.4 kg/m3
19694 kPa	1000.4 kg/m3
19718 kPa	1000.6 kg/m3
19747 kPa	1000.4 kg/m3
19771 kPa	1000.5 kg/m3
19795 kPa	1000.5 kg/m3
19824 kPa	1000.4 kg/m3
19849 kPa	1000.5 kg/m3
19873 kPa	1000.6 kg/m3
19904 kPa	1000.6 kg/m3
19928 kPa	1000.6 kg/m3
19952 kPa	1000.6 kg/m3
19977 kPa	1000.5 kg/m3
20006 kPa	1000.7 kg/m3
20031 kPa	1000.6 kg/m3
20056 kPa	1000.7 kg/m3
20081 kPa	1000.6 kg/m3
20111 kPa	1000.7 kg/m3
20136 kPa	1000.8 kg/m3
20162 kPa	1000.8 kg/m3
20192 kPa	1000.7 kg/m3
20217 kPa	1000.9 kg/m3
20248 kPa	1000.8 kg/m3
20274 kPa	1000.8 kg/m3
20299 kPa	1000.9 kg/m3
20324 kPa	1000.8 kg/m3
20350 kPa	1000.8 kg/m3
20381 kPa	1000.8 kg/m3
20406 kPa	1000.9 kg/m3
20432 kPa	1000.9 kg/m3
20463 kPa	1000.9 kg/m3
20489 kPa	1000.9 kg/m3
20515 kPa	1000.8 kg/m3
20547 kPa	1000.9 kg/m3
20573 kPa	1001 kg/m3
20600 kPa	1000.9 kg/m3
20627 kPa	1001 kg/m3
20658 kPa	1001 kg/m3
20685 kPa	1001.1 kg/m3
20716 kPa	1001 kg/m3
20743 kPa	1001 kg/m3
20770 kPa	1001 kg/m3
20797 kPa	1001 kg/m3
20829 kPa	1001 kg/m3
